Positions of bridges follow the written chain, without caps; N, C: chain ends. Non-standard residues stand in square brackets, D forms with d. Residues, ends and D or L forms follow the SMILES beside them. S5 = C=CCCC[C@](C)(N)C(=O)O
Experiments:
Jurkat cells = experiment: Cell viability assay (trypan blue), Jurkat cells; format: cell-based, human; conditions: for rescue of Jurkat cell survival by WT ks-vFLIP: FADD/ATG3 siRNA Jurkat cells overexpressing WT ks-vFLIP; for protection by ks-vFLIP, IKKγ-null cells: Jurkat cells null for IKKγ; for protection by A57L ks-vFLIP mutant against induced apoptosis: Jurkat cells with A57L ks-vFLIP; for Jurkat cell survival, FADD or ATG3 silenced or IKKγ null: no ks-vFLIP rescue, FADD siRNA, ATG3 siRNA
Description: Although it has been established that dysregulated activation of the canonical NF-κB pathway by ks-vFLIP renders mouse embryonic fibroblasts resistant to apoptosis induced by TNF-α ([12]), we sought to ascertain whether ks-vFLIP expression also prevents cell death induced by ETO. Unlike TNF-α, which instigates death receptor signaling, ETO, a topoisomerase II inhibitor, initiates cell death through the generation of DNA double-strand breaks ([20]). […] We next investigated the potential involvement of death-inducing signaling complex (DISC) formation and autophagy since ks-vFLIP has been cited (somewhat controversially) to interact with procaspase 8, an […] whose activation requires the adaptor protein FADD ([21]), and to physically associate with the ubiquitin-like conjugating enzyme ATG3, which is essential for the formation of autophagosomes ([11]). Viability assays were therefore conducted using Jurkat cells in which FADD and ATG3 were silenced (using small interfering RNA [siRNA]) together with those null for IKKγ in the presence of both ETO and TNF-α (Fig. 1C and D).
Lentiviral vectors expressing GST or GST fusion peptides together with green fluorescent protein (GFP), CherryFP, WT vFLIP, or vFLIPA57L (a mutant which fails to bind IKKγ) were produced as previously described ([19]). […] In each case, lentiviral vector doses were used to ensure that over 95% of cells were positive for the relevant fluorescent protein. The anti-FADD antibody used for immunoblots was purchased from BD Biosciences, and those for anti-ATG3 and anti-glyceraldehyde-3-phosphate dehydrogenase (anti-GAPDH) were from Cell Signaling Technology. Jurkat cells and their IKKγ-null derivatives were obtained from Alain Israel, Institute Pasteur, and verified as human T cells by surface CD3 staining.
(§1) The transfected cells, the human B cell lines BC3, BCP-1, and DG75 (a […] negative for KSHV and Epstein-Barr virus [EBV]) were treated with human TNF-α (PeproTech or Alomone Labs), ETO (Sigma), spIKKγ (encompassing IKKγ residues 230 to 248; see Fig. 3 for structure), or combinations of spIKKγ with either TNF-α or ETO. Cell survival was determined after 24 and 48 h by trypan blue staining and counting with a hemocytometer. Cell viability is expressed as a percentage of the number of viable cells per culture at the start of each experiment. […] Significance difference was calculated by two-way analysis of variance (ANOVA) with Fisher's least significant difference (LSD) posttest.

BC3 cells = format: cell-based, human; conditions: for BC3 cell death, agent individually: TNF-α or ETO alone
Protocol: (§2) Given their profound impact on NF-κB activation, we next assessed whether IKKγ-mimetic peptides could sensitize BC3 cells to TNF-α and ETO and thus stimulate cell death. To investigate this in cellulo, BC3 cells were transduced with the GST-IKKγ peptide vector prior to treatment with TNF-α or ETO, and after 24 h, their viabilities were assessed. As a control, similar trials were conducted but with GST-IKKγDM, which harbors the same peptide containing the F238R D242R IKKγ double mutations previously shown to impair ks-vFLIP binding and consequently NF-κB activation ([27]). […] We also determined whether spIKKγ could have a similar effect. Owing to the presence of the aliphatic linker and overall positive charge (+0.1), we reasoned that spIKKγ was likely to be cell permeable based on studies involving a diverse range of unrelated stapled peptides ([28][–][32]). […] The effects of SPIKKγ were also investigated on BCP-1 cells, an additional PEL cell line.
Lentiviral vectors expressing GST or GST fusion peptides together with green fluorescent protein (GFP), CherryFP, WT vFLIP, or vFLIPA57L (a mutant which fails to bind IKKγ) were produced as previously described ([19]). […] In each case, lentiviral vector doses were used to ensure that over 95% of cells were positive for the relevant fluorescent protein. […]
as §1

DG75 cells = experiment: Cell viability assay (trypan blue), DG75 cells; format: cell-based, human
Protocol: as §2
BC3, BCP-1, and DG75 cells were purchased for this study from the American Type Culture Collection (ATCC). They were verified as human B cell lines by surface staining for human Ig.
as §1

GB1–ks-vFLIP = biological target: T1, GB1–ks-vFLIP (Human herpesvirus 8 type P, UniProt F5HEZ4); experiment: biochemical; format: binding, Kaposi's sarcoma-associated herpesvirus
T1 construct: ks-vFLIP (residues 1 to 188) was PCR cloned into the EcoRI and XhoI sites of GB1-pBR22b; 6His (C); made in house; host or cells: E. coli BL21(DE3)
Protocol: We next sought to assess the affinity of spIKKγ for vFLIP using isothermal calorimetry (ITC).
Isothermal calorimetry (ITC) experiments were performed using a Microcal VP-ITC micocalorimeter (MicroCal). For all binding reactions, syringe concentrations varied between ∼85 and 100 μM for IKKγ(150–272) and cell concentrations between ∼8 and 10 μM for GB1-vFLIP. Titrations consisted of an initial 2-μl injection, followed by 20 10-μl injections with stirring at 300 rpm. In competition assays, GB1–ks-vFLIP was first incubated with 20 μM spIKKγ and DMSO to 4% prior to loading into the cell and titration with IKKγ(150–272). All ITC binding experiments were performed in deionized water at 25°C owing to the buffer constraints of spIKKγ, GB1–ks-vFLIP, and IKKγ(150–272), where GB1–ks-vFLIP and IKKγ(150–272) were buffer matched by overnight dialysis, followed by the addition of 4% DMSO to each. […] Following collection, all data were analyzed using ORIGIN 70 software and fitted to a one-site binding model with each experiment performed at least in triplicate.

| Molecule | rescue by WT ks-vFLIP, ATG3 siRNA (Jurkat cells; ATG3 siRNA Jurkat cells, ETO) | Jurkat cell survival, null for ks-vFLIP (Jurkat cells; ETO 50 μM, cells null for ks-vFLIP) | Jurkat cell survival with ks-vFLIP (Jurkat cells; ETO 50 μM, ks-vFLIP-expressing cells) | rescue of Jurkat cell survival by WT ks-vFLIP (Jurkat cells) | protection by ks-vFLIP, IKKγ-null cells (Jurkat cells) | protection by A57L ks-vFLIP mutant against induced apoptosis (Jurkat cells) | Jurkat cell survival, FADD or ATG3 silenced or IKKγ null (Jurkat cells) | BC3 cell death, agent individually (BC3 cells) | DG75 viability at 48 h, ETO (or ETO plus spIKKγ) (DG75 cells; Fig. 5E, 48 h) | DG75 sensitivity to ETO (DG75 cells; after 48 h) | Ki (GB1–ks-vFLIP) | IC50 (BC3 cells; spIKKγ alone, after 24 h, trypan blue, triplicate independent experiments, read-out: 50% inhibitory concentration (IC50), BC3 viability) | solubility in aqueous solutions | Jurkat cell survival, trend versus ETO (Jurkat cells; TNF-α, various concentrations, with and without ks-vFLIP) | DG75 viability, control experiment (DG75 cells; Fig. 5E, spIKKγ or TNF-α alone or in combination, 24 and 48 h) |
| --- | --- | --- | --- | --- | --- | --- | --- | --- | --- | --- | --- | --- | --- | --- | --- |
| COc1cc([C@@H]2c3cc4c(cc3[C@@H](O[C@@H]3O[C@@H]5CO[C@@H](C)O[C@H]5[C@H](O)[C@H]3O)[C@H]3COC(=O)[C@H]23)OCO4)cc(OC)c1O [ETO, etoposide] | to a lesser degree | severely compromised | only moderately reduced | could to a large extent be rescued | completely refractory to the protective effects of ks-vFLIP | could not protect cells against apoptosis | severely compromised in all three scenarios | negligible effects individually | significant reduction in viability | Considerable sensitivity |  |  |  |  |  |
| CC[C@H](C)[C@H](NC(=O)[C@H](Cc1c[nH]cn1)NC(=O)[C@H](CC(N)=O)NC(=O)[C@H](CC(=O)O)NC(=O)[C@H](Cc1ccc(O)cc1)NC(=O)[C@]1(C)CCCC=CCCC[C@](C)(NC(=O)[C@H](Cc2c[nH]cn2)NC(=O)[C@H](Cc2ccc(O)cc2)NC(=O)[C@H](C)NC(=O)[C@@H](NC(=O)[C@H](CCC(N)=O)NC(=O)[C@H](CC(C)C)NC(C)=O)C(C)C)C(=O)N[C@@H](CC(C)C)C(=O)N[C@@H](Cc2ccccc2)C(=O)N[C@@H](CCC(N)=O)C(=O)N1)C(=O)N[C@@H](CCCCN)C(=O)N[C@@H](CO)C(=O)N[C@@H](CO)C(=O)N[C@@H](CS)C(N)=O [spIKKγ] (Ac-LQVAYH[S5]LFQ[S5]YDNHIKSSC-NH2; staple 7-11) |  |  |  |  |  |  |  |  |  |  | 0.257 µM | ~75 µM | poor solubility |  |  |
| TNF-α |  |  |  | could to a large extent be rescued | completely refractory to the protective effects of ks-vFLIP | could not protect cells against apoptosis | severely compromised in all three scenarios | negligible effects individually |  |  |  |  |  | closely mirror the trend | failed to have a negative impact |

Source: paper PMC5686756, “IKKγ-Mimetic Peptides Block the Resistance to Apoptosis Associated with Kaposi's Sarcoma-Associated Herpesvirus Infection” (Journal of Virology, 2017)
